From paper PMC8151276, “An Integrated Approach toward NanoBRET Tracers for Analysis of GPCR Ligand Engagement” (Molecules, 2021)

Biological target: T1, CCR7 (Homo sapiens, UniProt P32248)
T1 construct: purchased Promega (in-house HiBiT-GPCR construct library, NanoBRET)
T1 sequence (P32248 25-378): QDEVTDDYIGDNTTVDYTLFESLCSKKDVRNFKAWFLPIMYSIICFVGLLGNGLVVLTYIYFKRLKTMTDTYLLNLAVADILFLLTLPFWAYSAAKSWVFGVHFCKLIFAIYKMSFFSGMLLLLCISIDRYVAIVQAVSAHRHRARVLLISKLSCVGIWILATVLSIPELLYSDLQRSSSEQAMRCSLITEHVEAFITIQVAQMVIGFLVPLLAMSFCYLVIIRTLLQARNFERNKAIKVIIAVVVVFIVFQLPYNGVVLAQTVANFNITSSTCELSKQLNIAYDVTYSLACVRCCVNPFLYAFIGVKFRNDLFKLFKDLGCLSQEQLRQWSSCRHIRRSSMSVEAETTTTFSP
Experiment: NanoBRET screen HiBiT-CCR7 in HEK293
Type: binding
Method: Each tracer candidate was screened across the entire library of HiBiT-GPCR constructs using NanoBRET as the detection modality. As depicted in Figure 4A, the specificity of interactions was evaluated through decrease in BRET due to competitive displacement of a bound tracer by excess parental compound. Each tracer was analyzed for binding to each HiBiT-GPCR fusion in the absence and in the presence of competing parental compound. Briefly, HEK293 cells were transfected with HiBiT-GPCR constructs diluted into promoterless DNA to reduce expression and maximize translocation to the cell surface. Each tracer candidate was then screened at concentrations of 1 μM and 0.1 μM across cells expressing these fusions. Cells were treated for 1.5 h with tracer either alone or in the presence of 20 μM competing parental compound (i.e., control). BRET was measured upon addition of purified LgBiT and subsequent complementation with HiBiT genetically fused to a GPCR. The specificity of interactions was assessed through a decrease in BRET signal due to competitive displacement of the bound tracer. To further gauge the robustness of these interactions, the fold response over the control (i.e., BRETtracer/BRETcontrol) was calculated. We chose a 1.5-fold response, which translates to ≥7-fold signal over noise as the minimal threshold required to score an interaction as positive. […]. Below we highlight the screening results obtained for our exemplary fluorescent tracers based on Clozapine, Amitriptyline and AZD1283.
HiBiT-GPCR DNA constructs were diluted in 10 mM Tris pH 8 to a final concentration of 0.01 μg/μL, arrayed in 96-well plates and stored at −20 °C. For transfection, HEK293 cells were suspended in Opti-MEM (without phenol red) supplemented with 2% fetal bovine serum (Seradigm) and 100 units/mL penicillin–streptomycin (Gibco) at a final concentration of 220,000 cells/mL and dispensed into white 96-well plates at 90 μL/well. Subsequent transfections and screens were carried using an Agilent Bravo Automated Liquid Handling Platform. First, the 96-well HiBiT DNA arrays were diluted 25-fold in Opti-MEM (without serum or phenol red) to a final concentration of 0.0004 μg/μL and 20 μL of the diluted DNAs were transferred into new 96-well plates. Next, promoterless carrier DNA (1 μg/μL) was diluted 25-fold (0.04 μg/μL) and then dispensed into the diluted arrays at 20 μL/well. Following brief mixing, Viafect transfection reagent (Promega) diluted 16-fold into Opti-MEM was dispensed into the plates at 40 μL/well. After mixing by pipetting, plates were incubated for 10 min on the pipetting station deck. The DNA-transfection reagent complexes were then added to plates containing cells. To facilitate the screen, 10 μL of DNA-transfection reagent complexes were added in duplicates to the top 4 and bottom 4 rows, resulting in two identical 48-well arrays per plate. Plates with transfected cells were incubated for 18–20 h at 37 °C/5% CO2. A screen of each tracer across the entire library using two different concentrations requires duplicate plates of transfected cells. Depending on the number of tracers being screened, transfections can be scaled up using the same ratios. The next day, for each tracer, four 20× screening solutions in tracer dilution buffer (Promega) were prepared: two duplicates at final concentration of 20 μM and two duplicates at a final concentration of 2 μM. A competing unmodified compound was added to one of each duplicate at a final concentration of 400 μM. The four resulting solutions were diluted 4-fold in Opti-MEM without serum or phenol red to generate 5× solutions (5 µM and 0.5 µM tracer +/− 100 μM competing compound). To screen the library, a BioTek MultiFlo FX liquid dispenser was used to dispense 22.5 µL of tracer solution to the top 4 rows and 22.5 µL tracer + competing compound solution to the 4 bottom rows. Plates were briefly mixed on an orbital shaker and incubated for 1.5 h at room temperature. […]

Compound: CCOC(=O)c1cc(C#N)c(N2CCC(C(=O)NS(=O)(=O)Cc3ccccc3/C=C/C(=O)NCCNC(=O)CCc3ccc4n3[B-](F)(F)[N+]3=C(c5ccc[nH]5)C=CC3=C4)CC2)nc1C [AZD1283-1-NB590]
- NanoBRET Fold Response (CCR7, 0.1μM): 1.03
- NanoBRET Fold Response (CCR7, 1μM): 1.01

Compound: N#CN=C(NCCCOc1cccc(CN2CCCCC2)c1)NCCNC(=O)CCOCCOCCOCCOCCNC(=O)CCc1ccc2n1[B-](F)(F)[N+]1=C(c3ccc[nH]3)C=CC1=C2 [Aminopotentidine-2-NB590]
- NanoBRET Fold Response (CCR7, tracer 0.1μM): 0.96
- NanoBRET Fold Response (CCR7, tracer 1μM): 1.01

Compound: CN(C)CCC=C1c2ccccc2CCc2ccc(C(=O)NCCNC(=O)CCOCCOCCOCCOCCNC(=O)CCc3ccc4n3[B-](F)(F)[N+]3=C(c5ccc[nH]5)C=CC3=C4)cc21 [Amitriptyline-a-2-NB590]
- NanoBRET Fold Response (tracer at 0.1μM): 1.01
- NanoBRET Fold Response (tracer at 1μM): 0.99

Compound: CN(C)CCC=C1c2ccccc2CCc2ccc(C(=O)NCCNC(=O)CCOCCOCCOCCOCCNC(=O)CCc3ccc4n3[B-](F)(F)[N+]3=C(c5ccc[nH]5)C=CC3=C4)cc21 [Amitriptyline-b-2-NB590]
- NanoBRET Fold Response (tracer at 0.1μM, listed as amitriptyline-b-2-NB590): 1.00
- NanoBRET Fold Response (tracer at 1μM, listed as amitriptyline-b-2-NB590): 1.00

Compound: CN(CCC=C1c2ccccc2CCc2ccccc21)C(=O)CCOCCOCCOCCOCCNC(=O)CCc1ccc2n1[B-](F)(F)[N+]1=C(c3ccc[nH]3)C=CC1=C2 [Amitriptyline-e-2-NB590]
- NanoBRET Fold Response (tracer at 1μM): 1.03

Compound: COc1ccc2c(n1)c(CCNC(C)=O)cn2CCNC(=O)CCc1ccc2n1[B-](F)(F)[N+]1=C(c3ccc[nH]3)C=CC1=C2 [Azamelatonin-1-NB590]
- NanoBRET Fold Response (0.1μM tracer): 0.88
- NanoBRET Fold Response (1μM tracer): 0.96

Compound: COc1ccc2[nH]c(-c3ccc(CNC(=O)CCOCCOCCOCCOCCNC(=O)CCc4ccc5n4[B-](F)(F)[N+]4=C(c6ccc[nH]6)C=CC4=C5)cc3)c(CCNC(C)=O)c2n1 [AzomelatoninICO9-2-NB590]
- NanoBRET Fold Response (0.1μM tracer): 1.02
- NanoBRET Fold Response (1μM tracer): 0.98

Compound: O=C(CCOCCOCCOCCOCCNC(=O)CCc1ccc2n1[B-](F)(F)[N+]1=C(c3ccc[nH]3)C=CC1=C2)NCCCN1CCN(C2=Nc3cc(Cl)ccc3Nc3ccccc32)CC1 [Clozapine-a-2-NB590]
- NanoBRET Fold Response (CCR7, 0.1μM tracer): 1.01
- NanoBRET Fold Response (CCR7, 1μM tracer): 0.99

Compound: CN1CCN(C2=Nc3cc(Cl)ccc3Nc3ccc(CNC(=O)CCOCCOCCOCCOCCNC(=O)CCc4ccc5n4[B-](F)(F)[N+]4=C(c6ccc[nH]6)C=CC4=C5)cc32)CC1 [Clozapine-b-2-NB590]
- NanoBRET Fold Response (CCR7, 0.1μM tracer): 1.00

Compound: CN1CCN(C2=Nc3cc(Cl)ccc3N(CC(=O)NCCOCCOCCOCCOCCNC(=O)CCc3ccc4n3[B-](F)(F)[N+]3=C(c5ccc[nH]5)C=CC3=C4)c3ccccc32)CC1 [Clozapine-c-2-NB590]
- NanoBRET Fold Response (CCR7, 0.1μM tracer): 0.97
- NanoBRET Fold Response (CCR7, 1μM tracer): 1.04

Compound: O=C(CCOCCOCCOCCOCCNC(=O)CCc1ccc2n1[B-](F)(F)[N+]1=C(c3ccc[nH]3)C=CC1=C2)NCCCN1CCN(C2=Nc3ccccc3Oc3ccc(Cl)cc32)CC1 [Loxapine-a-2-NB590]
- NanoBRET Fold Response (CCR7, tracer 0.1μM): 1.00
- NanoBRET Fold Response (CCR7, tracer 1μM): 1.11

Compound: COc1ccccc1N1CCN(CCCCN2C(=O)c3ccc(CNC(=O)CCOCCOCCOCCOCCNC(=O)CCc4ccc5n4[B-](F)(F)[N+]4=C(c6ccc[nH]6)C=CC4=C5)cc3C2=O)CC1 [NAN-190-2-NB590]
- NanoBRET Fold Response (CCR7, tracer 0.1μM): 0.97
- NanoBRET Fold Response (CCR7, tracer 1μM): 0.99

Compound: COc1ccccc1N1CCN(CCCCN2C(=O)c3ccc(CNC(=O)CCOCCNC(=O)c4ccc(CNC(=O)CCc5ccc6n5[B-](F)(F)[N+]5=C(c7ccc[nH]7)C=CC5=C6)cc4)cc3C2=O)CC1 [NAN-190-3-NB590]
- NanoBRET Fold Response (CCR7, tracer 0.1μM): 1.01
- NanoBRET Fold Response (CCR7, tracer 1μM): 1.00

Compound: O=C(CCc1ccc2n1[B-](F)(F)[N+]1=C(c3ccc[nH]3)C=CC1=C2)NCc1ccc(C(=O)NCCOCCC(=O)N[C@@H]2CC[C@@]3(O)[C@H]4Cc5ccc(O)c6c5[C@@]3(CCN4CC3CC3)[C@H]2O6)cc1 [Naltrexone-3-NB590]
- NanoBRET Fold Response (CCR7, tracer 0.1μM): 1.07
- NanoBRET Fold Response (CCR7, tracer 1μM): 1.05

Compound: Cc1cc2c(s1)Nc1ccccc1N=C2N1CCN(CCCNC(=O)CCOCCOCCOCCOCCNC(=O)CCc2ccc3n2[B-](F)(F)[N+]2=C(c4ccc[nH]4)C=CC2=C3)CC1 [Olanzapine-a-2-NB590]
- NanoBRET Fold Response (CCR7, tracer 0.1μM): 1.01
- NanoBRET Fold Response (CCR7, tracer 1μM): 1.05

Compound: O=C(CCc1ccc2n1[B-](F)(F)[N+]1=C(c3ccc[nH]3)C=CC1=C2)NCc1ccc(C(=O)NCCOCCOCCNCC(O)COc2cccc3ccccc23)cc1 (stereo not shown) [Propranolol-3-NB590]
- NanoBRET Fold Response (CCR7, 0.1μM): 1.03
- NanoBRET Fold Response (CCR7, 1μM): 1.01

Compound: O=C(CCc1ccc2n1[B-](F)(F)[N+]1=C(c3ccc[nH]3)C=CC1=C2)NCCOCCOCCNC(=O)OCCOCCN1CCN(C2=Nc3ccccc3Sc3ccccc32)CC1 [Quetiapine-a-2-NB590]
- NanoBRET Fold Response (CCR7, tracer 0.1μM): 1.03
- NanoBRET Fold Response (CCR7, tracer 1μM): 1.01

Compound: Cc1nc2n(c(=O)c1CCN1CCC(c3noc4cc(F)ccc34)CC1)CCCC2OC(=O)NCCOCCOCCOCCOCCNC(=O)CCc1ccc2n1[B-](F)(F)[N+]1=C(c3ccc[nH]3)C=CC1=C2 (stereo not shown) [Risperidone-2-NB590]
- NanoBRET Fold Response (CCR7, tracer 0.1μM): 1.00
- NanoBRET Fold Response (CCR7, tracer 1μM): 1.04

Compound: CC(C)N(CC[C@H](c1ccccc1)c1cc(CCNC(=O)CCOCCOCCOCCOCCNC(=O)CCc2ccc3n2[B-](F)(F)[N+]2=C(c4ccc[nH]4)C=CC2=C3)ccc1O)C(C)C [Tolterodine-2-NB590]
- NanoBRET Fold Response (CCR7, tracer 0.1μM): 1.26
- NanoBRET Fold Response (CCR7, tracer 1μM): 0.88

Compound: CC(C)N(CC[C@H](c1ccccc1)c1cc(CCNC(=O)c2ccc(CNC(=O)CCc3ccc4n3[B-](F)(F)[N+]3=C(c5ccc[nH]5)C=CC3=C4)cc2)ccc1O)C(C)C [Tolterodine-BZ-NB590]
- NanoBRET Fold Response (CCR7, tracer 0.1μM): 1.00
- NanoBRET Fold Response (CCR7, tracer 1μM): 1.01

Compound: CCCn1c(=O)c2[nH]c(-c3ccc(OCC(=O)NCCNC(=O)CCOCCNC(=O)c4ccc(CNC(=O)CCc5ccc6n5[B-](F)(F)[N+]5=C(c7ccc[nH]7)C=CC5=C6)cc4)cc3)nc2n(CCC)c1=O [XAC-3-NB590]
- NanoBRET Fold Response (CCR7, tracer 0.1μM): 0.99
- NanoBRET Fold Response (CCR7, tracer 1μM): 1.04
